No end group written: not given here.
What was measured:
milk production = details: cattle; J. Dairy Science 70, 2511 (1987) and 71, 92 (1988); cited from earlier work
growth hormone release [1] = assay: plasma GH level in anaesthetized rats after intravenous administration; format: in vivo, Wistar Amsterdam rats; details: for Plasma GH level: i.v.
Method: (§1) The biological effects of the compounds according to the invention were tested under in vitro and in vivo conditions. In both instances the growth hormone release was measured as a function of the concentration of the compound administered. The amount of growth hormone released was detected by radioimmune assay with a reliability limit of 95%. The results obtained were compared to those obtained when administering native hpGRF or hGRF(1-29)--NH2, respectively.
(§2) Mature male Wistar Amsterdam rats, weighing 250-300 g, were anaesthetized intraperitoneally with 60 mg/kg of pentobarbital. The peptides to be tested were dissolved in 0.9% by weight aqueous saline solution, and were administered to the animals 20 minutes after anaesthesy as an intravenous (i.v.), intramuscular (i.m.) or subcutaneous (s.c.) injection. Blood samples were taken from the jugular vein of the animals prior to the administration of the active agent (-1 minute) and 5, 15 and 30 minutes after challenge. The amount of growth hormone released was measured by radioimmune assay.
Therefore, when the compounds were administered intravenously, the percentage increase in activity was calculated by relating the amount of growth hormone released upon administering a compound of the invention to the amount of growth hormone released upon administering hGRF(1-29)--NH2.

growth hormone release [2] = assay: plasma GH level in anaesthetized rats after intramuscular administration; format: in vivo, Wistar Amsterdam rats; details: administered intramuscularly, in the doses tested
Method: as §1, §2
(§3) Therefore, in these tests the activity of the compounds according to the invention was characterized by the percentage increase in the plasma growth hormone level related to that originally present in the plasma (basal value).

growth hormone release [3] = assay: plasma GH level in anaesthetized rats after subcutaneous administration; format: in vivo, Wistar Amsterdam rats; details: administered subcutaneously, in the doses tested
Method: as §1, §2, §3

[4] = literature; cited from earlier work

Row | Substance | milk production of cattles, quality and quantity (in words) (milk production) | release of growth hormone (in words) (growth hormone release [1]; administered intravenously) | Plasma GH level (growth hormone release [1]; 0.8 μg/kg, +5 min) [ng/mL] | Plasma GH level (growth hormone release [1]; 0.8 μg/kg, +15 min) [ng/mL] | Plasma GH level (growth hormone release [1]; 0.8 μg/kg, +30 min) [ng/mL] | Plasma GH level (growth hormone release [1]; 0.8 μg/kg, -1 min (before administration)) [ng/mL] | Plasma GH level (growth hormone release [1]; 2 μg/kg, +5 min) [ng/mL] | Plasma GH level (growth hormone release [1]; 2 μg/kg, +15 min) [ng/mL] | Plasma GH level (growth hormone release [1]; 2 μg/kg, +30 min) [ng/mL] | Plasma GH level (growth hormone release [1]; 2 μg/kg, -1 min (before administration)) [ng/mL] | activity on growth hormone release (in words) (growth hormone release [2]) | activity on growth hormone release (in words) (growth hormone release [3]) | biological activity compared to the native hGRF(1-44)--NH2 (in words) [4]
1 | human GRF(1-44)--NH2 (YADAIFTNSYRKVLGQLSARKLLQDIMSRQQGESNQERGARARL-NH2; UniProt P01286 32-75, looked up) [native human GRF, a peptide amide of 44 residues] | influenced favourably |  |  |  |  |  |  |  |  |  |  |  | 
2 | hGRF(1-29)--NH2 (YADAIFTNSYRKVLGQLSARKLLQDIMSR-NH2; UniProt P01286 32-60, looked up, fragment) [Standard, fragment of the native human peptide amide extending from the N-terminal through residue 29; applied as standard] | influenced favourably | stimulated the release of growth hormone | 311.00 | 93.60 | 48.73 | 80.46 | 1061.11 | 393.13 | 109.22 | 125.22 | practically inactive | practically inactive | favourable activity

Reference: patent US5023322A, “Analogs of growth hormone releasing factor (GRF) and a method for the preparation thereof” (MTA Kutatas-es Szervezetelemzo Intezete, priority 1988, dated 1991)
